For 1 compound, Papp A→B and IC50 results are on record in patent publication US11377429B2, “Benzothia(di)azepine compounds and their use as bile acid modulators” (Albireo AB, priority 2020, dated 2022).

The nature of data set [1]: Bidirectional permeability assay (Caco-2 cells). It counts as in vitro ADME. Particulars: human, pH 7.4, Caco-2, absorptive direction (A2B). How it is done: Bidirectional Permeability Assay (Caco-2 Cells)
Caco-2 cells (Evotec) were seeded at a density of 70,000 cells/well in Millicell® 24-well cell culture insert plates and maintained in an incubator (37° C., 5% CO2, 95% RH) for 21 days with media change on alternate days.
Stock solutions (10 mM) of the test compounds, atenolol (low permeability marker), propranolol (high permeability marker) and digoxin (substrate for P-gp transport pathway) were prepared in dimethylsulfoxide (DMSO). An intermediate stock solution (1 mM) was prepared by diluting 10 μL of 10 mM master stock solution with 90 μL of neat DMSO. A working stock solution (10 μM) was prepared by diluting 50 μL of 1 mM with 4950 μL of FaSSIF buffer. […]
On the day of assay, Caco-2 monolayers were washed twice with transport buffer (HBSS, pH 7.4) and pre-incubated for 30 min (37° C., 5% CO2, 95% RH) in an incubator. The electrical resistance of the monolayers was measured with a Millicell®-ERS system. […]
Samples were vortexed and centrifuged at 4000 rpm for 10 minutes. […] The concentration of compounds in the samples was analyzed by liquid chromatography tandem mass spectrometry (LC-MS/MS) method using discovery grade bio-analytical method, as applicable.
The mean apparent permeability (Papp, ×10^−6 cm/sec) of the test compounds, atenolol, propranolol and digoxin were calculated as follows: […]
(Caco-2 cells form a polarised layer with tight junctions and transporters.)

Another data set has as its target T1, Human IBAT (Homo sapiens, UniProt Q12908).
T1 construct: expressed in transfected cells; cultured under Puromycin selection
T1 sequence (Q12908 1-348): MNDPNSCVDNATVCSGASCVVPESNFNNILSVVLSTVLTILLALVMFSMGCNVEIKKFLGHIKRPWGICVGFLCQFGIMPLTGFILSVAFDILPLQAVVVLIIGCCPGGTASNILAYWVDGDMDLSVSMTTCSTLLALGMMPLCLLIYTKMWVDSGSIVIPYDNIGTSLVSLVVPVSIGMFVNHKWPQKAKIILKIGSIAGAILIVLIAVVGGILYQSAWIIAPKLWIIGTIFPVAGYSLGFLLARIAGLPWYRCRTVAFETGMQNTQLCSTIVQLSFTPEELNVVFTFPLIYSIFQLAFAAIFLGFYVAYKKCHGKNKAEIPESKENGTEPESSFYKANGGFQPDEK
Nature of the data set: IBAT (h/m) assay, human IBAT-overexpressing cells, 3H-taurocholic acid uptake. It counts as cell-based. Particulars: read-out: hIBAT IC50. How it is done:
IBAT (h/m) Assay Protocol
10,000 cells (Human or Mouse IBAT-overexpressing cells) were seeded in 96-wells plate (Corning CLS3809) in 200 μL MEM-alpha medium (Gibco 12571-063) supplemented with 10% FBS (Gibco 10438026) containing Puromycin (Gibco A1113803) (10 μg/mL) and incubated at 37° C. in 5% CO2 for 48 hours. After incubation, media was decanted from the wells and cells were washed two times with 300 μL of basal MEM-alpha medium (FBS-free). After decanting basal MEM-alpha medium each time, plates were tapped against paper towel to ensure maximum removal of residual media. Test inhibitor dilutions (highest test concentration being 10 μM, 3-fold serial dilution, 10 points) prepared in DMSO (Sigma D2650) were added in incubation mix (maintaining 0.2% final DMSO concentration) containing 0.25 μM 3H-taurocholic acid (ARC ART-1368) and 5 μM of cold taurocholic acid (Sigma T4009). 50 μL of incubation mix containing test inhibitors was then added to the wells (in duplicate) and the plates were incubated for 20 minutes in a CO2 incubator at 37° C. After incubation, the reaction was stopped by keeping the plates on ice water mix for 2-3 minutes and then the incubation mix was aspirated completely from the wells. The wells were washed two times with 250 μL of chilled unlabeled 1 mM taurocholic acid dissolved in HEPES (Gibco 15630080)-buffered (10 mM) HBSS (Gibco 14175079) (pH 7.4). The plates were tapped against a paper towel after every wash to ensure maximum removal of blocking buffer. 100 μL of MicroScint-20 (PerkinElmer 6013621) was added to the wells and kept overnight at room temperature before reading the plates in TopCount NXT™ Microplate Scintillation and Luminescence Counter from PerkinElmer under 3H Test protocol (set at 120 seconds reading time per well).
Preparation of Test Compound Dilutions
All test compounds were provided in powder form at room temperature. 10 mM DMSO stocks of the test compounds were prepared, aliquoted and stored at −20° C. From the 10 mM DMSO stock of the compounds, a 3-fold serial dilution in DMSO was prepared to get a total of 10 dilutions of the test compounds. 0.5 μL of this dilution in DMSO was added to 250 μL of FBS-free basal media containing 3H-taurocholic acid and cold taurocholic acid to prepare the incubation mixture.

In the case of `CCCCC1(C)CN(c2ccc(F)cc2)c2cc(SC)c(OCC(O)C(=O)O)cc2S(=O)(=O)C1` (single isomer, unassigned) [1, diastereomer 1], the apparent permeability from apical to basolateral (Papp A→B) at 120 min, 10 µM in data set [1] was found to be 2.2 ×10⁻⁶ cm/s. At Human IBAT, the IC50 turned out to be 1 nM.

By Papp A→B is commonly meant the apparent permeability from the apical to the basolateral side of a cell layer. As a reminder, the IC50 is the concentration that inhibits the measured activity by half.
